Results reported in publication PMC2806602 (The Journal of neuroscience : the official journal of the …, 2009).
Positions count from the first letter of the chain named.

How the values were obtained:
Assay type in all cases: cell-based
GluRδ2^Lc D535A+D782A = target: T1, GluRδ2^Lc D535A+D782A (Rattus norvegicus, UniProt Q63226, A654T/D535A/D782A); experiment: Two-electrode voltage-clamp recordings in Xenopus oocytes, GluRδ2^Lc D535A+D782A
T1 sequence (Q63226 24-1007 D535A/A654T/D782A): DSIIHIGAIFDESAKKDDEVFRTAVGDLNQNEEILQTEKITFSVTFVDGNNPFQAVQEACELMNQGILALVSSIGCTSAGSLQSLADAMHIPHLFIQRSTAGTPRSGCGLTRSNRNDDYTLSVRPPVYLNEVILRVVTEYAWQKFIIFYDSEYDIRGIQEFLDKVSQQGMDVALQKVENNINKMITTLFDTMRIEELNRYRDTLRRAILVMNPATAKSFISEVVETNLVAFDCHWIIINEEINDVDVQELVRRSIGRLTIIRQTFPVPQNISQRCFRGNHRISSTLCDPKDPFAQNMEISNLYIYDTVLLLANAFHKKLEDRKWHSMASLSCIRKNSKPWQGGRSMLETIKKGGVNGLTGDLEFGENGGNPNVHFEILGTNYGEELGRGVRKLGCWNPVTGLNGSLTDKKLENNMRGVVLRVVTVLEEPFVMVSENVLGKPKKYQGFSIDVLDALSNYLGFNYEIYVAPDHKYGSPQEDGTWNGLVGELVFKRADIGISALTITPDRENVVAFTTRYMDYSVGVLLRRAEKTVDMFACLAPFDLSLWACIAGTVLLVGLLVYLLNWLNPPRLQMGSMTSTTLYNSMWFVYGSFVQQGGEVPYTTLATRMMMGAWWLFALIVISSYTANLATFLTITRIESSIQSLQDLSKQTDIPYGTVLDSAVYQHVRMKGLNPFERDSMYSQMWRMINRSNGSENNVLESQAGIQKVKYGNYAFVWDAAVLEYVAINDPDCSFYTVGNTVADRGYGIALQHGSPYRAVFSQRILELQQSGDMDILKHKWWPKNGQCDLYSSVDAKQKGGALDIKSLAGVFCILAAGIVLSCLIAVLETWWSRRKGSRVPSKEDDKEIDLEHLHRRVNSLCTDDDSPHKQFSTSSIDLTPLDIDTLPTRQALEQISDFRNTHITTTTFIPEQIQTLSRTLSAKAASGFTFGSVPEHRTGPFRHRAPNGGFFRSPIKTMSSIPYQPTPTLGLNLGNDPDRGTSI

GluRδ2^Lc E531A = target: T2, GluRδ2^Lc E531A (Rattus norvegicus, UniProt Q63226, A654T/E531A); experiment: Two-electrode voltage-clamp recordings in Xenopus oocytes, GluRδ2^Lc E531A
T2 sequence (Q63226 24-1007 E531A/A654T): T1 sequence (Q63226 24-1007 D535A/A654T/D782A) with E508A, A512D, A759D

GluRδ2^Lc P528C+L789C = target: T3, GluRδ2^Lc P528C+L789C (Rattus norvegicus, UniProt Q63226, A654T/L789C/P528C); experiment: Two-electrode voltage-clamp recordings in Xenopus oocytes, GluRδ2^Lc P528C+L789C
T3 sequence (Q63226 24-1007 P528C/A654T/L789C): T1 sequence (Q63226 24-1007 D535A/A654T/D782A) with P505C, A512D, A759D, L766C

SMILES | Ca^2+ potentiation (relative to baseline) (GluRδ2^Lc D535A+D782A; 3 mM Ca^2+, ± SEM) | Ca^2+ potentiation (relative to baseline) (GluRδ2^Lc E531A; 3 mM Ca^2+, ± SEM) | Ca^2+ potentiation (relative to baseline) (GluRδ2^Lc P528C+L789C; 3 mM Ca^2+, ± SEM) | D-serine + 0 mM Ca^2+ nH (GluRδ2^Lc D535A+D782A; Hill slope, 0 mM Ca^2+) | D-serine + 3 mM Ca^2+ nH (GluRδ2^Lc D535A+D782A; Hill slope, 3 mM Ca^2+) | D-serine + 0 mM Ca^2+ nH (GluRδ2^Lc E531A; Hill slope, 0 mM Ca^2+) | D-serine + 3 mM Ca^2+ nH (GluRδ2^Lc E531A; Hill slope, 3 mM Ca^2+) | D-serine + 0 mM Ca^2+ nH (GluRδ2^Lc P528C+L789C; Hill slope, 0 mM Ca^2+) | D-serine + 3 mM Ca^2+ nH (GluRδ2^Lc P528C+L789C; Hill slope, 3 mM Ca^2+)
[Ca+2] [Ca^2+, calcium] | 0.6 ± 0.01 fold | 1.6 ± 0.08 fold | 0.9 ± 0.01 fold | – | – | – | – | – | –
N[C@H](CO)C(=O)O [D-serine] | – | – | – | 1.0 | 1.1 | 1.1 | 1.9 | 1.1 | 0.8
